Experimental data as given in PubChem BioAssay AID2060494 (Molecular Pharmacology Branch, DTP, NCI, 2025).
“And” between values parts separate entries of the source, which are not always exact repeats. Equal entries are not always repeated.

System: 435261-313-R-J1-PDC complex spheroid viability
Test: Anticancer human tumor 435261-313-R-J1-PDC patient-derived colon adenocarcinoma cell line growth inhibition [GQUAD]
Details: for IC50: curve of first compound; for viability, T/C: stronger effect = lower value
From the text: DNA G-quadruplex Stabilizer Agents in Combinations in Complex Spheroids
A high-throughput screen of multi-cell type tumor spheroids was designed to identify active combinations of DNA G-quadruplex stabilizer agents and targeted small molecules. Complex spheroids include a stromal component modeled by human endothelial cells (HUVEC) and fibroblasts modeled by human mesenchymal stem cells (MSCs). The concentration ranges selected for each drug and investigational agent were based upon clinically achievable concentrations if the clinical Cmax of the agent was known.
Compounds. The drugs and investigational agents: pidnarulex (CX-5461; NSC782164), APTO-253 (NSC789042), BRACO-19 (NSC847499), peposertib (NSC802822), ceralasertib (NSC780249), elimusertib (NSC800525), camonsertib (NSC841442), AZD-1390 (NSC803789), olaparib (NSC753686), talazoparib (NSC767125), ART-558 (NSC835418), sotorasib (NSC818433), MRTX-1133 (NSC836407), SN-38 (NSC673596), topotecan (NSC609699), etoposide (NSC141540), doxorubicin (NSC123127), gemcitabine (NSC613327), 5-fluorouracil (NSC19893), paclitaxel (NSC125973), vemurafenib (NSC761431), panobinostat (NSC761190), R-306465 (JNJ-16241199; NSC773264), adavosertib (NSC754352), TP-3654 (NSC805149), carboplatin (NSC241240), KSQ-4279 (NSC840948), and staurosporine (NSC755774) were obtained from the National Cancer Institute (NCI) Developmental Therapeutics Program Chemical Repository (34). The FDA-approved anticancer drug set is available from the NCI Developmental Therapeutics Program. […] The stock solutions were prepared in dimethyl sulfoxide (DMSO, Sigma-Aldrich, St. Louis, MO, cat. D2650) at 800-fold the tested concentration and stored at -70 degrees C prior to their use. All drugs and investigational agents were tested over a range starting from a high concentration at or near the clinical Cmax and decreasing in half-log increments. If the clinical Cmax for an agent had not been determined, the highest concentration tested was 10 microM.
2.3 Cell Culture. All cells were maintained in an incubator at 37 degrees C and 5% CO2 with 95% humidity. The PDC lines were cultured according to standard operating procedures established by the NCI PDMR. All PDCs were thawed and cultured in Matrigel-coated flasks prepared with a working solution of 1X Ham's F-12 nutrient mix, without supplementation (Invitrogen, cat. 11765054), 100 U/mL penicillin-streptomycin (Invitrogen, cat. 15140122), and 2.5% Matrigel (Corning Inc., cat. 354248) for the first three passages. The 857933-349-R-J2-PDC line was cultured in 6C/Colon 1B media, which includes advanced DMEM/F-12 (Thermo Fisher Scientific, cat. 12634028), 10 mM HEPES (Thermo Fisher Scientific, cat. 15630080), 1X GlutaMAX supplement (Thermo Fisher Scientific, cat. 35050061), 0.1 mg/mL primocin (InvivoGen, cat. ant-pm-2), 10% defined fetal bovine serum, heat inactivated (HyClone Laboratories Inc., cat. SH30070.03HI), 50% L-WRN conditioned media (ATCC, cat. CRL-3276), 1.25 mM N-Acetyl-L-cysteine (Sigma-Aldrich, cat. A9165), 10 mM nicotinamide (Sigma-Aldrich, cat. N0636), 1X B-27 supplement (Thermo Fisher Scientific, cat. 17504044), 1X N-2 supplement (Thermo Fisher Scientific, cat. 17502048), 10 microM Y-27632 dihydrochloride (Tocris Bioscience, cat. 1254), and 50 ng/mL human EGF recombinant protein (Thermo Fisher Scientific, cat. PHG0311). The 485176-168-R4-J1-PDC line was cultured in Panc media, which includes all 6C/Colon 1B media components plus 100 ng/mL human FGF-10 (Thermo Fisher Scientific, cat. 100-26), 500 nM SB-431542 (Selleckchem, cat. S1067), and gastrin (Tocris, cat. 3006).
[…]

[1] = second compound 0.0316 µM, first compound 0.0316 µM
[2] = second compound 0.0316 µM, first compound 0.1 µM
[3] = second compound 0.0316 µM, first compound 0.316 µM
[4] = second compound 0.0316 µM, first compound 1 µM
[5] = second compound 0.0316 µM, first compound 3.16 µM
[6] = second compound 0.0316 µM, first compound 10 µM
[7] = second compound 0.1 µM, first compound 0.0316 µM
[8] = second compound 0.1 µM, first compound 0.1 µM
[9] = second compound 0.1 µM, first compound 0.316 µM
[10] = second compound 0.1 µM, first compound 1 µM
[11] = second compound 0.1 µM, first compound 3.16 µM
[12] = second compound 0.1 µM, first compound 10 µM
[13] = second compound 0.316 µM, first compound 0.0316 µM
[14] = second compound 0.316 µM, first compound 0.1 µM
[15] = second compound 0.316 µM, first compound 0.316 µM
[16] = second compound 0.316 µM, first compound 1 µM
[17] = second compound 0.316 µM, first compound 3.16 µM
[18] = second compound 0.316 µM, first compound 10 µM
[19] = second compound 1 µM, first compound 0.0316 µM
[20] = second compound 1 µM, first compound 0.1 µM
[21] = second compound 1 µM, first compound 0.316 µM
[22] = second compound 1 µM, first compound 1 µM
[23] = second compound 1 µM, first compound 3.16 µM
[24] = second compound 1 µM, first compound 10 µM
[25] = second compound 3.16 µM, first compound 0.0316 µM
[26] = second compound 3.16 µM, first compound 0.1 µM
[27] = second compound 3.16 µM, first compound 0.316 µM
[28] = second compound 3.16 µM, first compound 1 µM
[29] = second compound 3.16 µM, first compound 3.16 µM
[30] = second compound 3.16 µM, first compound 10 µM
[31] = second compound 10 µM, first compound 0.0316 µM
[32] = second compound 10 µM, first compound 0.1 µM
[33] = second compound 10 µM, first compound 0.316 µM
[34] = second compound 10 µM, first compound 1 µM
[35] = second compound 10 µM, first compound 3.16 µM
[36] = second compound 10 µM, first compound 10 µM
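Also: spheroids exposed to the agents for seven days before readout.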
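For viability, T/C in this document: percent of vehicle control viability with DMSO wells as 100%.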

CC(=O)O[C@H]1C(=O)[C@@]2(C)[C@H]([C@H](OC(=O)c3ccccc3)[C@]3(O)C[C@H](OC(=O)[C@H](O)[C@@H](NC(=O)c4ccccc4)c4ccccc4)C(C)=C1C3(C)C)[C@]1(OC(C)=O)CO[C@@H]1C[C@@H]2O + Cc1cnc(CNC(=O)c2c(=O)c3ccc(N4CCCN(C)CC4)nc3n3c2sc2ccccc23)cn1
IC50 (second compound 0.0316 µM): 825 nM | IC50 (second compound 0.1 µM): > 10000 nM | IC50 (second compound 0.316 µM): 5200 nM | IC50 (second compound 1 µM): < 31.6 nM | IC50 (second compound 3.16 µM): < 31.6 nM | IC50 (second compound 10 µM): < 31.6 nM | viability, T/C [1]: 66.7% | viability, T/C [2]: 58.1% | viability, T/C [3]: 56.9% | viability, T/C [4]: 40.8% | viability, T/C [5]: 54.3% | viability, T/C [6]: 48.4% | viability, T/C [7]: 54.5% | viability, T/C [8]: 54% | viability, T/C [9]: 51.5% | viability, T/C [10]: 45.1% | viability, T/C [11]: 57.3% | viability, T/C [12]: 53.6% | viability, T/C [13]: 56.8% | viability, T/C [14]: 55.1% | viability, T/C [15]: 52.7% | viability, T/C [16]: 52.9% | viability, T/C [17]: 53.4% | viability, T/C [18]: 46.8% | viability, T/C [19]: 40.3% | viability, T/C [20]: 41.5% | viability, T/C [21]: 42.3% | viability, T/C [22]: 42.9% | viability, T/C [23]: 45.6% | viability, T/C [24]: 34% | viability, T/C [25]: 10.4% | viability, T/C [26]: 4.44% | viability, T/C [27]: 6.35% | viability, T/C [28]: 12.5% | viability, T/C [29]: 11.3% | viability, T/C [30]: 7.23% | viability, T/C [31]: 0.12% | viability, T/C [32]: 0.16% | viability, T/C [33]: 0.15% | viability, T/C [34]: 0.17% | viability, T/C [35]: 0.2% | viability, T/C [36]: 0.16%

Nc1ccn(C2OC(CO)C(O)C2(F)F)c(=O)n1 (configuration not stated) + Cc1[nH]c2ccc(F)cc2c1-c1nc2c3cccnc3c3ncccc3c2[nH]1
IC50 (second compound 0.0316 µM): 161 nM | IC50 (second compound 0.1 µM): < 31.6 nM | IC50 (second compound 0.316 µM): < 31.6 nM | IC50 (second compound 1 µM): < 31.6 nM | IC50 (second compound 3.16 µM): < 31.6 nM | IC50 (second compound 10 µM): < 31.6 nM | viability, T/C [1]: 74% | viability, T/C [2]: 50.2% | viability, T/C [3]: 47.9% | viability, T/C [4]: 42% | viability, T/C [5]: 57.9% | viability, T/C [6]: 51.1% | viability, T/C [7]: 53.2% | viability, T/C [8]: 45.5% | viability, T/C [9]: 42.1% | viability, T/C [10]: 49.5% | viability, T/C [11]: 50.3% | viability, T/C [12]: 51.9% | viability, T/C [13]: 39.5% | viability, T/C [14]: 50% | viability, T/C [15]: 46.3% | viability, T/C [16]: 44% | viability, T/C [17]: 48.1% | viability, T/C [18]: 33.1% | viability, T/C [19]: 50.4% | viability, T/C [20]: 40.6% | viability, T/C [21]: 42.1% | viability, T/C [22]: 34.7% | viability, T/C [23]: 41.8% | viability, T/C [24]: 35.5% | viability, T/C [25]: 26.7% | viability, T/C [26]: 31.9% | viability, T/C [27]: 25.5% | viability, T/C [28]: 24.7% | viability, T/C [29]: 28.9% | viability, T/C [30]: 25.9% | viability, T/C [31]: 16.3% | viability, T/C [32]: 19.1% | viability, T/C [33]: 18% | viability, T/C [34]: 20.2% | viability, T/C [35]: 15.7% | viability, T/C [36]: 18.7%

CCc1c2c(nc3ccc(O)cc13)-c1cc3c(c(=O)n1C2)COC(=O)[C@]3(O)CC
viability, T/C (compound 0.000999 µM): 92.5% and 68.7% and 82% | viability, T/C (compound 0.00316 µM): 48.6% and 84.6% and 53.4% | viability, T/C (compound 0.00999 µM): 66.8% and 82.9% and 63.2% | viability, T/C (compound 0.0316 µM): 48.6% and 83.2% and 48.7% | viability, T/C (compound 0.0999 µM): 44% and 53.8% and 41.1% | viability, T/C (compound 0.316 µM): 30.8% and 54.3% and 25.1%

CC1COCCN1c1cc(C2(S(C)(=N)=O)CC2)nc(-c2ccnc3[nH]ccc23)n1 (configuration not stated) + Cc1cnc(CNC(=O)c2c(=O)c3ccc(N4CCCN(C)CC4)nc3n3c2sc2ccccc23)cn1
IC50 (second compound 0.0316 µM): 3840 nM | IC50 (second compound 0.1 µM): 3200 nM | IC50 (second compound 0.316 µM): 2350 nM | IC50 (second compound 1 µM): < 31.6 nM | IC50 (second compound 3.16 µM): < 31.6 nM | IC50 (second compound 10 µM): < 31.6 nM | viability, T/C [1]: 52.9% | viability, T/C [2]: 57.6% | viability, T/C [3]: 66.8% | viability, T/C [4]: 53.9% | viability, T/C [5]: 49.2% | viability, T/C [6]: 42.7% | viability, T/C [7]: 41.4% | viability, T/C [8]: 66.6% | viability, T/C [9]: 46.2% | viability, T/C [10]: 45.9% | viability, T/C [11]: 50.6% | viability, T/C [12]: 38.8% | viability, T/C [13]: 53.5% | viability, T/C [14]: 55.8% | viability, T/C [15]: 60.6% | viability, T/C [16]: 55.1% | viability, T/C [17]: 44.9% | viability, T/C [18]: 40.5% | viability, T/C [19]: 31.8% | viability, T/C [20]: 37.9% | viability, T/C [21]: 35.9% | viability, T/C [22]: 41.5% | viability, T/C [23]: 31.3% | viability, T/C [24]: 26% | viability, T/C [25]: 18.1% | viability, T/C [26]: 10.2% | viability, T/C [27]: 21% | viability, T/C [28]: 18.6% | viability, T/C [29]: 17.3% | viability, T/C [30]: 5.09% | viability, T/C [31]: 0.26% | viability, T/C [32]: 0.15% | viability, T/C [33]: 0.17% | viability, T/C [34]: 0.18% | viability, T/C [35]: 0.2% | viability, T/C [36]: 0.21%
